Measurements: PubChem BioAssay AID1259407 (Chemical Carcinogenesis Research Information System (CCRIS), 2018)
Activity calls are given as the source filed them. The rule behind the calls is not given here.

Tested on: CCRIS mutagenicity, Ames/micronucleus/aberration tests
Test: CCRIS mutagenicity studies
[1] = Test System: AMES SALMONELLA TYPHIMURIUM, Strain/Indicator: TA98, Metabolic Activation: NONE, Method: PREINCUBATION
[2] = Test System: AMES SALMONELLA TYPHIMURIUM, Strain/Indicator: TA100, Metabolic Activation: NONE, Method: PREINCUBATION

For `O=C(Cl)C(Cl)c1ccccc1` (stereo not drawn), the mutagenic call [1] was “active; positive”, the mutagenic call (Test System: AMES SALMONELLA TYPHIMURIUM, Strain/Indicator: TA98, Metabolic Activation: RAT LIVER S-9, PCB, Method: PREINCUBATION) was “active; positive” and the mutagenic call [2] was “active; positive”. The mutagenic call (Test System: AMES SALMONELLA TYPHIMURIUM, Strain/Indicator: TA100, Metabolic Activation: RAT LIVER S-9, PCB, Method: PREINCUBATION) was “active; positive”, the mutagenic call (Test System: AMES SALMONELLA TYPHIMURIUM, Strain/Indicator: TA104, Metabolic Activation: NONE, Method: PREINCUBATION) was “active; positive” and the mutagenic call (Test System: AMES SALMONELLA TYPHIMURIUM, Strain/Indicator: TA104, Metabolic Activation: RAT LIVER S-9, PCB, Method: PREINCUBATION) was “active; positive”. The mutagenic call (Test System: E.COLI, Strain/Indicator: WP2 UVRA, Metabolic Activation: NONE, Method: PREINCUBATION) was “active; positive” and the mutagenic call (Test System: E.COLI, Strain/Indicator: WP2 UVRA, Metabolic Activation: RAT LIVER S-9, PCB, Method: PREINCUBATION) was “active; positive”.
In the case of `Nc1ccc(Sc2ccc(N)cc2)cc1`, the mutagenic call (Test System: AMES SALMONELLA TYPHIMURIUM, Strain/Indicator: TA97, Metabolic Activation: HAMSTER, LIVER, S-9, AROCLOR 1254 (10%), Method: PREINCUBATION) was “active; positive”, the mutagenic call (Test System: AMES SALMONELLA TYPHIMURIUM, Strain/Indicator: TA97, Metabolic Activation: NONE, Method: PREINCUBATION) was “inactive; negative” and the mutagenic call (Test System: AMES SALMONELLA TYPHIMURIUM, Strain/Indicator: TA97, Metabolic Activation: RAT, LIVER, S-9, AROCLOR 1254 (10%), Method: PREINCUBATION) was “active; positive”. For the same compound, the mutagenic call (Test System: AMES SALMONELLA TYPHIMURIUM, Strain/Indicator: TA98, Metabolic Activation: HAMSTER, LIVER, S-9, AROCLOR 1254 (10%), Method: PREINCUBATION) was “active; positive”, the mutagenic call [1] was “inactive; negative” and the mutagenic call (Test System: AMES SALMONELLA TYPHIMURIUM, Strain/Indicator: TA98, Metabolic Activation: RAT, LIVER, S-9, AROCLOR 1254 (10%), Method: PREINCUBATION) was “active; positive”. For the same compound, the mutagenic call (Test System: AMES SALMONELLA TYPHIMURIUM, Strain/Indicator: TA98, Metabolic Activation: RAT, LIVER, S-9, PCB, Method: PREINCUBATION) was “active; positive”, the mutagenic call (Test System: AMES SALMONELLA TYPHIMURIUM, Strain/Indicator: TA100, Metabolic Activation: HAMSTER, LIVER, S-9, AROCLOR 1254 (10%), Method: PREINCUBATION) was “active; positive” and the mutagenic call [2] was “active; positive”. For the same compound, the mutagenic call (Test System: AMES SALMONELLA TYPHIMURIUM, Strain/Indicator: TA100, Metabolic Activation: RAT, LIVER, S-9, AROCLOR 1254 (10%), Method: PREINCUBATION) was “active; positive”, the mutagenic call (Test System: AMES SALMONELLA TYPHIMURIUM, Strain/Indicator: TA100, Metabolic Activation: RAT, LIVER, S-9, PCB, Method: PREINCUBATION) was “active; positive” and the mutagenic call (Test System: AMES SALMONELLA TYPHIMURIUM, Strain/Indicator: TA1535, Metabolic Activation: HAMSTER, LIVER, S-9, AROCLOR 1254 (10%), Method: PREINCUBATION) was “inactive; negative”. The mutagenic call (Test System: AMES SALMONELLA TYPHIMURIUM, Strain/Indicator: TA1535, Metabolic Activation: NONE, Method: PREINCUBATION) was “inactive; negative”, the mutagenic call (Test System: AMES SALMONELLA TYPHIMURIUM, Strain/Indicator: TA1535, Metabolic Activation: RAT, LIVER, S-9, AROCLOR 1254 (10%), Method: PREINCUBATION) was “inactive; negative” and the mutagenic call (Test System: AMES SALMONELLA TYPHIMURIUM, Strain/Indicator: TA1537, Metabolic Activation: HAMSTER, LIVER, S-9, AROCLOR 1254 (10%), Method: PREINCUBATION) was “inactive; negative”. The mutagenic call (Test System: AMES SALMONELLA TYPHIMURIUM, Strain/Indicator: TA1537, Metabolic Activation: NONE, Method: PREINCUBATION) was “inactive; negative” and the mutagenic call (Test System: AMES SALMONELLA TYPHIMURIUM, Strain/Indicator: TA1537, Metabolic Activation: RAT, LIVER, S-9, AROCLOR 1254 (10%), Method: PREINCUBATION) was “inactive; negative”.
For `Oc1cc(Cl)c(Cl)c(Cl)c1O`, the mutagenic call (Test System: CHINESE HAMSTER V-79, Strain/Indicator: V-79/6-THIOGUANINE, Metabolic Activation: NONE, Method: STANDARD PLATE) was “inactive; negative”.
For `OC1(c2ccc(Cl)cc2)c2ccccc2C2=NCCN21` (stereo not drawn), the mutagenic call (Test System: CHINESE HAMSTER V-79, Strain/Indicator: V-79/6-THIOGUANINE, Metabolic Activation: NONE) was “active; positive” and the mutagenic call (Test System: CHINESE HAMSTER V-79, Strain/Indicator: V-79/6-THIOGUANINE, Metabolic Activation: S-9) was “active; positive”.
